Results published in patent publication US10344264B2, “Culturing of human embryonic stem cells at the air-liquid interface for differentiation into pancreatic endocrine cells” (Janssen Biotech, Inc., priority 2012, dated 2019).
Read-outs that look alike come from different tables or passages of the source.

Columns and labels:
[1] = tested on: cells of the human embryonic stem cell line H1; settings: air-liquid interface, 1000 nM ALK5 inhibitor in Stages 5 and 6
Method: Cells of the human embryonic stem cell line H1 (passage 40) were seeded as single cells at 1×10^5 cells/cm^2 on […] ™ (1:30 dilution; BD Biosciences, NJ)-coated dishes in a media comprising DMEM-F12 (Invitrogen, Ca), GlutaMax™ (1:100 dilution, Invitrogen), 0.25 mM ascorbic acid (Sigma, MO), 100 ng/ml of FGF2 (R & D systems, MN), 1 ng/ml of TGF-β (R & D systems), ITS-X (1:100 dilution), 2% fatty-acid free BSA (Lampire, PA), and 20 ng/ml of IGF-1 (R & D systems), supplemented with 10 μM of Y27632 (Rock inhibitor, Catalog No. Y0503, Sigma-Aldrich). Forty-eight hours post-seeding, cultures were washed in incomplete PBS (phosphate buffered saline without Mg or Ca). The cells were then differentiated according to the following protocol: • a. Stage 1 (3 days): Cells were cultured for one day in MCDB-131 medium (Invitrogen Catalog No. 10372-019) supplemented with 2% fatty acid-free BSA (Proliant, Catalog No. 68700); 0.0012 g/ml sodium bicarbonate (Sigma-Aldrich, Catalog No. S3187); 1× GlutaMax™ (Invitrogen, Catalog No. 35050-079); 4.5 mM D-glucose (Sigma-Aldrich, Catalog No. G8769); 100 ng/ml GDF8 (R&D Systems); and 1 μM MCX compound. Cells were then cultured for an additional day in MCDB-131 medium supplemented with: 2% fatty acid-free BSA; 0.0012 g/ml sodium bicarbonate; 1× GlutaMax™; 4.5 mM D-Glucose; 100 ng/ml GDF8; and 0.1 μM MCX compound. […]

[2] = tested on: cells of the human embryonic stem cell line H1
From the text: At Stage 4 and subsequent cultures, mRNA was collected for PCR analysis of relevant pancreatic endoderm/endocrine genes. Total RNA was extracted with the RNeasy® Mini Kit (Qiagen; Valencia, Calif.) and reverse-transcribed using a High Capacity cDNA Reverse Transcription Kit (Applied Biosystems, Foster City, Calif.) according to manufacturers' instructions. cDNA was amplified using Taqman Universal Master Mix and Taqman Gene Expression Assays which were pre-loaded onto custom Taqman Arrays (Applied Biosystems).
Cells were then cultured for an additional day in MCDB-131 medium supplemented with 2% fatty acid-free BSA, 0.0012 g/ml sodium bicarbonate, 1× GlutaMax™, 4.5 mM D-Glucose, 100 ng/ml GDF8, and 0.1 μM MCX compound. […]

[3] = tested on: cells of the human embryonic stem cell line H1; settings: air-liquid interface; mRNA at Stage 6 day 5 and day 8
Method: Cells of the human embryonic stem cell line H1 (passage 42) were seeded as single cells at 1×10^5 cells/cm^2 on […] ™ (1:30 dilution; BD Biosciences, NJ)-coated dishes in a media comprising of DMEM-F12 (Invitrogen, Ca), GlutaMax™ (1:100 dilution, Invitrogen), 0.25 mM ascorbic acid (Sigma, MO), 100 ng/ml of FGF2 (R & D systems, MN), 1 ng/ml of TGF-β (R & D systems), ITS-X (1:100 dilution), 2% fatty-acid free BSA (Lampire, PA), and 20 ng/ml of IGF-1 (R & D systems), supplemented with 10 μM of Y27632 (Rock inhibitor, Catalog No. Y0503, Sigma). Forty-eight hours post-seeding, cultures were washed in incomplete PBS (phosphate buffered saline without Mg or Ca). The cells were then differentiated according to the following protocol: • a) Stage 1 (3 days): Cells were cultured for one day in MCDB-131 medium (Invitrogen Catalog No. 10372-019) supplemented with 2% fatty acid-free BSA (Proliant Catalog No. 68700), 0.0012 g/ml sodium bicarbonate (Sigma-Aldrich Catalog No. S3187); 1× GlutaMax™ (Invitrogen Catalog No. 35050-079); 4.5 mM D-glucose (Sigma-Aldrich Catalog No. G8769); 100 ng/ml GDF8 (R&D Systems); and 1 μM MCX compound. Cells were then cultured for an additional day in MCDB-131 medium supplemented with 2% fatty acid-free BSA, 0.0012 g/ml sodium bicarbonate, 1× GlutaMax™, 4.5 mM D-glucose, 100 ng/ml GDF8, and 0.1 μM MCX compound. […]

[4] = tested on: cells of the human embryonic stem cell line H1; remark: listed apart in the source
Method: Cells of the human embryonic stem cell line H1 (passage 40) were seeded as single cells at 1×10^5 cells/cm^2 on […] ™ (1:30 dilution; BD Biosciences, NJ)-coated dishes or Matrigel-coated filter inserts (Millipore PIHT 30R 48) in a media comprising of DMEM-F12 (Invitrogen, Ca), Glutamax (1:100 dilution, Invitrogen), 0.25 mM ascorbic acid (Sigma, MO), 100 ng/ml of FGF2 (R & D systems, MN), 1 ng/ml of TGF-B (R & D systems), ITS-X (1:100 dilution), 2% fatty-acid free BSA (Lampire, PA), and 20 ng/ml of IGF-1 (R & D systems), supplemented with 10 μM of Y27632 (Rock inhibitor, Catalog No. Y0503, SigmaAldrich, St. Louis, Mo.). Forty-eight hours post seeding, cultures were washed in incomplete PBS (phosphate buffered saline without Mg or Ca). The cells were then differentiated according to the following protocol: • a) Stage 1 (3 days): Cells were cultured for one day in MCDB-131 medium (Invitrogen Catalog No. 10372-019) supplemented with 2% fatty acid-free BSA (Proliant Catalog No. 68700), 0.0012 g/ml sodium bicarbonate (SigmaAldrich Catalog No. S3187), 1× GlutaMax™ (Invitrogen Catalog No. 35050-079), 4.5 mM D-Glucose (SigmaAldrich Catalog No. G8769), 100 ng/ml GDF8 (R&D Systems) and 1 μM MCX compound. Cells were then cultured for an additional day in MCDB-131 medium supplemented with 2% fatty acid-free BSA, 0.0012 g/ml sodium bicarbonate, 1× GlutaMax™, 4.5 mM D-Glucose, 100 ng/ml GDF8, and 0.1 μM MCX compound. […]

[5] = tested on: cells of the human embryonic stem cell line H1; assay: Real-time PCR of Stage 6 cells at the air-liquid interface with gamma secretase inhibitor XX (Example 12); assay type: cell-based; settings: 100 nM to 5000 nM at Stage 6; mRNA at Stage 6 day 4 and day 8
Method: This example highlights that NOTCH inhibitors, such as gamma secretase inhibitors, further enhance maturation markers of β cells while retaining expression of NKX6.1.
At Stage 6, various doses (100 nM to 5000 nM) of gamma Secretase inhibitor XX (EMD, #565789) were tested. mRNA was collected at Stage 6 day 4 and Stage 6 day 8. FIG. 21 depicts the PCR data for key β cell maturation markers along with pancreatic progenitor markers.

Compound | expression of glucagon [1] | expression of insulin [1] | insulin expression at Stage 6 as compared to Stage 5 ([2]; cultures at the air-liquid interface) | insulin expression at Stage 6 as compared to Stage 5 ([2]; planar cultures treated at Stage 5 and Stage 6) | expression of MAFA on removal of the inhibitor at Stage 6 [3] | co-expression of NKX6.1 and chromogranin-A (immunostaining) ([4]; Stage 6 cells at the air-liquid interface, 1 micro molar inhibitor) | number of NKX6.1 positive cells co-expressing insulin or chromogranin-A ([4]; filter inserts at the air-liquid interface) | number of NKX6.1 positive cells co-expressing insulin or chromogranin-A ([4]; same protocol on traditional monolayer cultures) | Amylin expression [5] | MAFA expression [5] | NKX6.1 expression [5] | PTF1a expression [5] | SOX9 expression [5] | insulin expression [5]
Cc1cccc(-c2[nH]ncc2-c2ccc3ncccc3n2)n1 [ALK5 inhibitor II] | significantly enhanced | significantly enhanced | enhancement | drop | dramatic drop | co-expression of NKX6.1 and chromogranin-A | significantly enhanced | failed to show significant numbers | – | – | – | – | – | –
C[C@H](NC(=O)Cc1cc(F)cc(F)c1)C(=O)N[C@@H]1C(=O)N(C)c2ccccc2-c2ccccc21 [gamma Secretase inhibitor XX] | – | – | – | – | – | – | – | – | significantly upregulated | significantly upregulated | not significantly affected | significantly down regulated | significantly down regulated | significantly upregulated
